Data taken from BindingDB's records for patent US11453697 (Merck Sharp & Dohme, 2022).

Target: Stimulator of interferon genes protein [1-379,R71H,G230A,H232R,R293Q] (Homo sapiens, UniProt Q86WV6, G230A/H232R/R293Q/R71H)
Assay: 3H-cGAMP Filtration Binding Assay (HAQ STING)
Experimental: Compound and membrane then preincubated for 60 min at RT to allow compound binding to equilibrate. Following equilibration, 8 nM of [3H] c-GAMP ligand was prepared by diluting into assay buffer, and 50 uL of this working stock was then manually added to each well of the assay plate. […] The filter plates were then dried at 55° C. for 30 min using a pressurized VWR oven before 30 uL of Ultima GoldF scintillate was added to each well. Tritium levels for each reaction well were then measured using a PerkinElmer TopCount plate reader.

Chain of Stimulator of interferon genes protein [1-379,R71H,G230A,H232R,R293Q] (Q86WV6 whole entry R71H/G230A/H232R/R293Q, looked up): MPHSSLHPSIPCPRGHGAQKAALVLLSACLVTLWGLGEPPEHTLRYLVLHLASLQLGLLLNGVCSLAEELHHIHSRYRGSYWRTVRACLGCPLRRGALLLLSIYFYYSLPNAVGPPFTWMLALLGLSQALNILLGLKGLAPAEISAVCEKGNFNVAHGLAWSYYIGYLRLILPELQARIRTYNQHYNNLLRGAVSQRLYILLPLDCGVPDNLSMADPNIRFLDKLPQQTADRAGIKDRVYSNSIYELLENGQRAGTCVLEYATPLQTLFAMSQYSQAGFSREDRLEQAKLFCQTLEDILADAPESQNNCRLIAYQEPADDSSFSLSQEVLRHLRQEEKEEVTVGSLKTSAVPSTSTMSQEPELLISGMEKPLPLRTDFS

SMILES	EC50
Nc1nc2c(ncn2[C@@H]2O[C@@H]3COP(=O)(S)OC4[C@@H](COP(=O)(S)O[C@H]2C3)O[C@@H](n2nnc3c(N)ncnc32)[C@H]4F)c(=O)[nH]1 (some centres not stated) [US11453697, Example 133]	0.0614 µM
Nc1nc2c(ncn2[C@@H]2O[C@@H]3COP(=O)(S)O[C@H]4[C@H](F)[C@H](n5cnc6c(N)ncnc65)O[C@@H]4COP(=O)(O)O[C@@H]2[C@@H]3F)c(=O)[nH]1 (some centres not stated) [US11453697, Example 143]	0.00105 µM
